# Measurements reported in US12318375B2, “Method of treatment with tradipitant” (Vanda Pharmaceuticals Inc., priority 2015, dated 2025).
# Experiments:
# [1] = tested on: chronic pruritus in patients with atopic dermatitis; assay: Phase II proof of concept clinical study VP-VLY-686-2101: efficacy on pruritus measures; assay type: in vivo, human; settings: for VAS Average change (primary): tradipitant 100 mg qd oral in the evening
# Method: A phase II proof of concept clinical study (Study ID VP-VLY-686-2101, “Proof of Concept of VLY-686 in Subjects With Treatment-Resistant Pruritus Associated With Atopic Dermatitis”) was conducted, investigating the safety and efficacy of tradipitant as a monotherapy in the treatment of chronic pruritus in patients with atopic dermatitis.
# In the study, patients with a Visual Analog Scale (VAS) score of greater than 70 mm during one of the two days preceding inclusion into the study were randomized to receive orally either 100 mg of tradipitant (N=34) or placebo (N=35) once a day in the evening. In the tradipitant arm of the study, tradipitant was orally administered to patients in capsules with standard excipients in an amount of 100 mg in the evening. Clinical assessments were made after 3 or 4 weeks of daily treatment, or at both 3 weeks and 4 weeks, each assessment being done in the morning of the day after last treatment or in the afternoon of the day after last treatment. The tradipitant was administered in an immediate release form comprising tradipitant and pharmaceutically acceptable excipients in a capsule. The tradipitant particle size was approximately: D10: <5 um, D50: <10 um, and D90: <25 um, wherein D10 means that 10% of the particles are of the indicated mean particle size, D50 means that 50% of the particles are of the indicated mean particle size, and D90 means that 90% of the particles are of the indicated mean particle size.
# Baseline VAS scores were 76.1 and 77.2 for the tradipitant and placebo arms respectively. Efficacy was evaluated through a number of clinical research instruments. In addition, at the time of efficacy evaluation blood samples were collected for PK analysis in order to determine the plasma levels of tradipitant.
# [2] = Example 2: plasma concentration of tradipitant in healthy subjects (85 mg qd, then Q12H); assay type: in vivo, human
# Method: In one study, healthy subject participants were orally administered 85 mg tradipitant on study day 3, and then 85 mg tradipitant Q12H on study days 4-16. Plasma concentration levels of tradipitant were measured on each of day 3, day 7, and day 11.
# This study illustrated that administration of 85 mg tradipitant qd (on day 3) produced an average plasma concentration over hours 0-12 that was about 50% of the plasma concentration observed in the PM group in Example 1. On days 7 and 11, the average plasma concentration over hours 0-12 following administration of 85 mg bid (specifically, Q12H) tradipitant was about 150% of the plasma concentration observed in the PM group in Example 1. The average plasma concentration over hours 0-12 at each point was determined by dividing the AUC for hours 0-12 (in (hr.)×(ng/mL)) by 12 hours.
smiles,measurement,setting,value
"O=C(c1ccccc1Cl)c1cccnc1-c1nnn(Cc2cc(C(F)(F)F)cc(C(F)(F)F)c2)c1-c1ccncc1 [Tradipitant, {2-[1-(3,5-Bistrifluoromethylbenzyl)-5-pyridin-4-yl-1H-[1,2,3]triazol-4-yl]-pyridin-3-yl}-(2-chlorophenyl)-methanone]","endpoints that correspond to the underlying disease (SKINDEX, SCORAD objective, EASI and DLQI) compared with placebo","[1]; 100 mg qd, 4-week study",did not show any significant difference from placebo
same,VAS Average change (primary),"[1]; AM group (morning assessment), N = 18, after 3 or 4 weeks",−54
same,"CGIC, Diff tradipitant vs placebo","[1]; AM group, 100 mg qd",−1.15
same,"DLQI change, Diff tradipitant vs placebo","[1]; AM group, 100 mg qd",0.35
same,"PBI, Diff tradipitant vs placebo","[1]; AM group, 100 mg qd",0.74
same,"SCORAD change, Diff tradipitant vs placebo","[1]; AM group, 100 mg qd",−5.23
same,"VAS Worst change, Diff tradipitant vs placebo","[1]; AM group, 100 mg qd",−21.9
same,"VRS change, Diff tradipitant vs placebo","[1]; AM group, 100 mg qd",−0.79
same,PBI,"[1]; AM group, 100 mg qd, N = 18",1.47
same,"VAS Average change, Diff tradipitant vs placebo","[1]; AM group, 100 mg qd, tradipitant N = 18 vs placebo N = 17",−23.7
same,VAS Average change (primary),"[1]; PM group (afternoon assessment), N = 13, after 3 or 4 weeks",−28.8
same,"CGIC, Diff tradipitant vs placebo","[1]; PM group, 100 mg qd",0.19
same,"DLQI change, Diff tradipitant vs placebo","[1]; PM group, 100 mg qd",−1.89
same,"PBI, Diff tradipitant vs placebo","[1]; PM group, 100 mg qd",−0.39
same,"SCORAD change, Diff tradipitant vs placebo","[1]; PM group, 100 mg qd",0.88
same,"VAS Worst change, Diff tradipitant vs placebo","[1]; PM group, 100 mg qd",8.99
same,"VRS change, Diff tradipitant vs placebo","[1]; PM group, 100 mg qd",−0.13
same,efficacy analysis of pruritus measures compared with placebo,"[1]; PM group, 100 mg qd",no significant differences between tradipitant and placebo
same,PBI,"[1]; PM group, 100 mg qd, N = 13",1.01
same,"VAS Average change, Diff tradipitant vs placebo","[1]; PM group, 100 mg qd, tradipitant N = 13 vs placebo N = 11",5.82
same,VAS change from baseline compared with placebo (pre-specified primary endpoint),"[1]; all patients, 100 mg qd",no statistical difference from placebo
same,average plasma concentration over hours 0-12 (AUC 0-12 divided by 12 hours) relative to PM group in Example 1,"[2]; day 3, 85 mg qd oral",about 50%
same,average plasma concentration over hours 0-12 (AUC 0-12 divided by 12 hours) relative to PM group in Example 1,"[2]; days 7 and 11, 85 mg bid (Q12H) oral",about 150%
